Results taken from patent publication US20060276416A1, “Methods and compositions for treating flushing and drug induced weight gain” (Sirtris Pharmaceuticals, Inc., priority 2005, published 2006).
Entries after “also recorded” stand apart in the source; their conditions may differ.

How the values were obtained:
[1] = system: AMPK at Thr172 and ACC at serine 79; experiment: AMPK and ACC phosphorylation Western in CHO-HIR cells; assay type: cell-based
Experimental: Cells were harvested after 30 minutes and lysates were immediately boiled in SDS and subjected to Western analysis with site-specific antibodies. Phosphorylation of AMPK at Thr172 indicates activation of the kinase. Active AMPK phosphorylates and inactivates ACC at serine 79.

[2] = system: 3T3-L1 cells; experiment: Adipocyte differentiation and fat content, Oil Red O; assay type: cell-based
Experimental: (§1) After 10 days of differentiation, cells were fixed and stained with Oil red O. Oil red 0 was extracted from stained cells and quantified by measuring absorbance at 520 nm. B. Oil red 0 quantitation is shown as fold change relative to the 3T3-L1 sample treated with 0 μM resvratrol.
(§2) After 10 days of differentiation, fat content was assessed by Oil Red O staining, as described below. […] The results in NIH3T3 cells confirm the results obtained in C. elegans.
(§3) 3T3-L1 and NIH3T3 cells were maintained in DMEM plus 10% calf serum. Adipocyte differentiation of 3T3-L1 cells was performed as described previously (MacDougald, O. A. and Lane, M. D. (1995). Transcriptional regulation of gene expression during adipocyte differentiation. Annu. Rev. Biochem. 64, 345-373). NIH3T3 cells were induced to form adipocytes under the same conditions as 3T3-L1 cells, but with 6 days of treatment with insulin, dexamethasone, and isobutylmethylxanthine in 10% fetal calf serum after cells reach confluence. The staining of adipocytes with Oil Red-O and quantitation was performed as described previously (Ramirez-Zacarias J L, Castro-Munozledo F, Kuri-Harcuch W. Histochemistry. 1992 97(6): 493-7).

[3] = system: NIH3T3 cells; experiment: as above; assay type: cell-based; details: 10 days of differentiation
Experimental: as §1, §2, §3

[4] = system: lysine 382 of p53; experiment: p53 K382 acetylation Western blot in UV-irradiated U2OS cells; assay type: cell-based, human
Experimental: FdL (200 μM) is added to growth media and cells incubated for 1-3 hours to allow FdL to enter the cells and the lysine-deacetylated product (deAc-FdL) to accumulate intracellularly. Cells are lysed with detergent in the presence of 1 μM TSA, 1 mM nicotinamide. […] Cells were grown adherently in DMEM/10% FCS and treated for 1 hour with 200 μM FdL, 1 μM TSA and either vehicle (0.5% final DMSO, Control) or 500 μM of the indicated compound. Intracellular accumulation of deAc-FdL was then determined as described briefly in a. […] Lysates were prepared and analyzed as above.
Whole cell extracts were prepared by lysing cells in buffer containing 150 mM NaCl, 1 mM MgCl2, 10% glycerol, 1% NP40, 1 mM DTT and anti-protease cocktail (Roche).

[5] = system: C. elegans; experiment: C. elegans lifespan assay; assay type: in vivo
Experimental: Thus, the presence of resveratrol in the growth media of C. elegans extends their lifespan.
Bristol N2 (Caenorhabditis Genetics Center) was used as the wild-type strain. The sir-2.1 mutant strain was generated by backcrossing VC 199 (sir-2.1 (ok434)) to N2 four times. Cultures were grown on standard NGM media and maintained on E. coli strain OP50. For the lifespan assays, synchronized animals were transferred to treatment plates as young adults (2 d after hatching, day 0 of assay), and were transferred to fresh treatment plates every 2 days for the first 6 to 8 days of the assay. […] For some lifespan trials, heat-killed OP50 were used as a food source. OP50 cultures were heated to 65° C. for 30 minutes, then pelleted and resuspended in 1/10 volume in S Basal supplemented with 10 mM MgSO4. In all assays, worms were monitored daily for mortality by gently probing with a platinum pick. Assays were performed at 24° C. To assay worm feeding rates, worms at the indicated stages were placed on treatment plates (no FUdR) for 4-5 hours, then videoed for 1 minute using a Pixelink PL-662 camera. The frame rate was slowed and the pumping rate of the pharynx was counted. To assay fecundity, gravid hermaphrodites (5 per plate, raised from synchronized L1s on normal or treatment plates) were allowed to lay eggs on their respective media for 5 hours, and the total number of eggs was counted.

[6] = target: recombinant dSir2 (Drosophila melanogaster, UniProt Q9VK34); experiment: dSir2 deacetylation assay (Fluor de Lys); assay type: biochemical, D. melanogaster; details: dose-dependent; maximum
Experimental: From 0.1 to 1 μg of SIR-2.1 and 1 μg of dSir2 were used per deacetylation assay as previously described with modifications (SIR-2.1: 200 μM NAD^+, 10 μM Fluor de Lys, FdL; dSir2: 25 μM NAD^+, 10 μM FdL)^26. STACs were dissolved at 10 mM in dimethylsulfoxide (DMSO) the day of the assay. In vitro fluorescence assay results were read in 96-well microplates (Corning Costar 3693) with a Wallac Victor Multilabel counter (Perkin Elmer, excitation at 360 nm, emission at 450 nm). Drosophila S2 cells were grown in Schneider media with fetal calf serum at 23-28° C., seeded at 9×10^4 cells/well, grown overnight and then exposed to 1 μM TSA, 500 μM polyphenols, and 200 μM FdL for 2 hr. Deacetylation of FdL with lysate from whole cells was determined as described^4. Unless otherwise indicated all initial rate measurements were means of three or more replicates obtained with single incubation times, at which point 5% or less of the substrate initially present was deacetylated.

[7] = system: ribosomal DNA recombination; experiment: Ribosomal DNA recombination assay (loss of ADE2 marker); assay type: cell-based, S. cerevisiae
[8] = system: TNF-alpha treated adipocytes; experiment: Radioactive glucose uptake in TNF-alpha treated insulin resistant adipocytes; assay type: cell-based; details: resveratrol 5 μM or 15 μM; roziglitazone 4 μM

Sequence of recombinant dSir2 (Q9VK34 whole entry): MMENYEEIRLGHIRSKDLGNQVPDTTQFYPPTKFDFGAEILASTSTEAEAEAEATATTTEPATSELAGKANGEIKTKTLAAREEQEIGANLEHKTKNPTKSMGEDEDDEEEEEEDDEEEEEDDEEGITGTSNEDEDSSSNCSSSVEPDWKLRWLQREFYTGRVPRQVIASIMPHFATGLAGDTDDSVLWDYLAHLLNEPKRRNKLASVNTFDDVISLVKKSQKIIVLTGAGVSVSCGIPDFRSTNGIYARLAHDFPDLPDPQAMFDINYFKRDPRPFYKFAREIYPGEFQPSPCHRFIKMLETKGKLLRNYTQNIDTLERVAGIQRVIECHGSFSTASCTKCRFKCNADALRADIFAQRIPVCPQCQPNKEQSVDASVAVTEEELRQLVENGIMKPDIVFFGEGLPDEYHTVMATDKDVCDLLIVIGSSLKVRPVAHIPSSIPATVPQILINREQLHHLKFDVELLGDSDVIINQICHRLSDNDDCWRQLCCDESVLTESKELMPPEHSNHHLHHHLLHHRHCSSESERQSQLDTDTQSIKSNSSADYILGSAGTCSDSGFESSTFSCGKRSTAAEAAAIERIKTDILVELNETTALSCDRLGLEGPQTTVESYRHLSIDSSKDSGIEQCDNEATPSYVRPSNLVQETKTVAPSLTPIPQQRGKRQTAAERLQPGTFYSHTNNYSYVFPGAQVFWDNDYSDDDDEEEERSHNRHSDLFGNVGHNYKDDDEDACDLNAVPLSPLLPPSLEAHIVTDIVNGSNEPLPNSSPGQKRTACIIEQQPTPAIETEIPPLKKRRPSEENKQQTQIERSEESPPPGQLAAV

With `Oc1ccc(/C=C/c2cc(O)cc(O)c2)cc1` [Resveratrol, 3,5,4′-Trihydroxy-trans-stilbene] the “Activation of AMPK” value ([1]; 100 nM to 50 μM resveratrol, increasing concentrations) was “activation of AMPK”, the “Phosphorylation of AMPK and ACC” value ([1]; AICAR 500 μM, resveratrol 12.5, 25 or 50 μM, 30 minutes) was “stimulates phosphorylation of AMPK and ACC” and the “Concentrations that decreased the quantity of cellular fat” value ([2]; 10 days of differentiation) was no less than 25 µM. For the same compound, the PPARγ expression ([2]; resveratrol-treated cells) was “did not show an increase; also recorded: marked decrease”, the “Concentrations that decreased the quantity of cellular fat” value [3] was no less than 25 µM and the “Level of Ac-K382” value ([4]; 0.5 μM resveratrol, 4 hours pre-treatment, UV radiation) was “marked decrease”. For the same compound, the “Level of Ac-K382” value ([4]; higher concentrations of resveratrol (>50 μM)) was “reversed”, the “Lifespan extension (in words)” value ([5]; sir-2.1 null mutant) was “did not exhibit a significant lifespan extension” and the Lifespan extension ([5]; wild-type worms, 100 μM, heat-killed or live E. coli, maximum) was “up to 15%”. For the same compound, the Stimulation of deacetylation [6] was no more than 2.4 fold, the “Effect on rDNA recombination” value ([7]; in the presence of the Sir2 inhibitor nicotinamide) was “decreased” and the “Effect on rDNA recombination” value ([7]; sir2 strain) was “does not suppress”. For the same compound, the “Insulin sensitivity (radioactive glucose uptake)” value [8] was “partially rescued”.
